Blank lines part the entries; values can stand above or below the compound they belong to.
Columns and labels:
HepG2 cells [1] = conditions: HepG2 cells treated for 2 days; non-patent document 8; cited from earlier work
[2] = system: Hepatoblastoma HepG2 cells; test: Morphology of HepG2 cells cultured with substance that inhibits DNA methylation caused by Dnmt-1; type: cell-based, human; conditions: 2.5 μM; day 14 of culture
Protocol: (§1) Hepatoblastoma HepG2 cells (American Type Culture Collection: ATCC) were plated on a 35 mm cell culture dish at 7×10^5 cells, and cultured in DMEM (Invitrogen Corporation) added with 100 IU/mL penicillin-100 μg/mL streptomycin solution (Invitrogen Corporation), 10% fetal bovine serum (Thermo Fisher Scientific K.K.), and a substance that inhibits DNA methylation (5-aza-2′-deoxycytidine: 5-aza (decitabine): 2.5 μM). The medium was exchanged every day.

HepG2 cells [3] = test: PAS staining of HepG2 cells (glycogen storage capacity); type: cell-based, human; conditions: 2.5 μM; culture for 14 days; compared to control without inhibitor
Protocol: as §1, with “HepG2” for “Hepatoblastoma HepG2”, “(ATCC)” for “(American Type Culture Collection: ATCC)”

[4] = non-patent document 12; cited from earlier work
[5] = system: Mouse hepatic progenitor cells; test: Expression level of hepatocyte markers after differentiation induction of mouse hepatic progenitor cells (real-time PCR); type: cell-based; conditions: for expression level of Cyp17a1 / expression level of G6pc / expression level of Tat / expression level of albumin: 100 nM siRNA introduced on day 2, day 6 of culture, compared to control siRNA (siCtrl)
Protocol: To a basal medium for hepatocyte were added 5 μg/mL of insulin (Sigma-Aldrich Corporation), 25 ng/mL of epidermal growth factor (EGF) (Sigma-Aldrich Corporation), 25 ng/mL of hepatocyte growth factor (HGF) (Peprotech), 12.5 ng/mL of oncostatin M (Sigma-Aldrich Corporation), 5×10^−7M hydrocortisone 21-hemisuccinate sodium salt (Sigma-Aldrich Corporation) and 10^−7 M dexamethasone (Sigma-Aldrich Corporation) to prepare the medium.
The hepatic parenchymal cells were diluted with HEPES buffer added with 2% fetal bovine serum to prepare a 10^7 cells/100 μL cell suspension, which was transferred into a 5 mL round-bottom tube. A mouse FcR blocking antibody in EasySep Mouse Biotin Positive Selection Kit ([…] Technologies Inc) was added at 1 μL per 10^7 cells, and the mixture was admixed by tapping the tube. Biotin-labeled anti-E-cadherin antibody (eBioscience) was added at 2-4 μL per 10^7 cells, and the mixture was left standing at room temperature for 15 min while stirring the tube every 2-3 minutes. Biotin Selection Cocktail in EasySep Mouse Biotin Positive Selection Kit was added at 10 μL per 10^7 cells, and the mixture was left standing at room temperature for 15 min with occasional stirring. Magnetic particles in EasySep Mouse Biotin Positive Selection Kit were added at 5 μL per 10^7 cells, and the mixture was stirred and left standing at room temperature for 10 min. To the cell suspension was added a medium for cell isolation, and the volume was adjusted to 2.5 mL. The mixture was suspended with a 2 mL plastic pipette, and the tube was placed in an exclusive magnet ([…] Technologies Inc.) and left standing at room temperature for 10 min. The exclusive magnet containing the tube was reversed for 3 sec, and a non-hepatic progenitor cell fraction was removed (purification operation: first time). The tube was taken out from the exclusive magnet, 2.5 mL of the medium for cell isolation was added, and a purification operation was performed again (purification operation: second time). Furthermore, 2.5 mL of the medium for cell isolation was added, and a purification operation was performed for the third time (purification operation: third time). The cells remaining in the tube are the hepatic progenitor cells.
Total RNA was extracted from cultured cells, liver cancer cell lines, and mouse and human normal hepatic tissues by using miRNeasy Mini Kit (QUIAGEN). The total RNA was quantified by NanoDrop 1000 spectrophotometer (Thermo Fisher Scientific K.K.). The hepatic tissues recovered from mouse were placed in ice-cooled phosphate buffer and disrupted before extraction of RNA. Red blood cells were lysed in Red Blood Cell Lysis Buffer (Sigma-Aldrich Corporation).
(§2) RNA was quantified by the real-time PCR method using 7300 real-time PCR system (Applied Biosystems) and TaqMan MicroRNA Assays (Applied Biosystems). The miRNA expression was standardized at 6NU6B level. For quantification of messenger RNA, total RNA sample was treated with DNase (TURBO DNA-free kit: Ambion Inc.), and cDNA was synthesized from 1 μg of total RNA by using reverse transcriptase (SuperScript III Reverse Transcriptase: Ambion Inc.). For quantification, SYBR Green (PlatinumSYBR Green quantitative PCR SuperMix UDG: Invitrogen Corporation) was used. The reaction for real-time PCR was performed at 95° C., 2 min, 40 cycles (95° C. for 15 sec, 60° C. for 30 sec). The cDNA expression level was standardized by GAPDH.

Dnmt-1 = Dnmt-1 expression level after differentiation induction of mouse hepatic progenitor cells (real-time PCR); type: cell-based; conditions: 100 nM siRNA; day 6 of culture; compared to control siRNA (siCtrl)
Protocol: as §2, with “GAPDH. […]” for “GAPDH.”
Mouse hepatic progenitor cells were plated at 4×10^4 cells/cm^2 in a 35 mm cell culture dish coated with type I collagen, […], after confluence (after day 4 of culture), the cells were cultured in the medium for hepatic progenitor cells free of epidermal growth factor (EGF) and fetal bovine serum. […] Total RNA was extracted, and Dnmt-1 was quantified by the real-time PCR method. […]

Compound: Nc1ncn([C@H]2C[C@H](O)[C@@H](CO)O2)c(=O)n1 [5-aza-2′-deoxycytidine]
- mRNA level of CYP gene (HepG2 cells [1]): increases
- cell morphology [2]: morphology specific to mature hepatocyte (multiple nuclei, clear cell boundary)
- glycogen storage capacity (PAS staining) (HepG2 cells [3]): high glycogen storage capacity
- apoptosis [4]: induce apoptosis
- cytotoxicity [4]: high cytotoxicity

- effect of promoting differentiation into a hepatocyte ([5]; among the substances that inhibit DNA methylation): high effect
Compound: O=C(O)C(Cc1c[nH]c2ccccc12)N1C(=O)c2ccccc2C1=O (centres unmarked) [RG108]
- expression of albumin ([5]; RG108 20 or 100 μM in medium from day 2, day 7 of culture, compared to control): high level

Compound: siDnmt-1a: double stranded RNA, sense strand SEQ ID NO: 9 and antisense strand SEQ ID NO: 10; siRNA that suppresses expression of Dnmt-1 (sense GGUAGAGAGUUACGACGAATT; antisense UUCGUCGUAACUCUCUACCTG; chemistry not given here)
- expression level of Cyp17a1 [5]: high expression levels
- expression level of G6pc [5]: high expression levels
- expression level of Tat [5]: high expression levels
- expression level of albumin [5]: high expression levels
- expression of Dnmt-1 (Dnmt-1): suppressed

Compound: siDnmt-1b: double stranded RNA, sense strand SEQ ID NO: 11 and antisense strand SEQ ID NO: 12; siRNA that suppresses expression of Dnmt-1 (sense CAACGGAUCCUAUCACACUTT; antisense AGUGUGAUAGGAUCCGUUGTA; chemistry not given here)
- expression level of Cyp17a1 [5]: high expression levels
- expression level of G6pc [5]: high expression levels
- expression level of Tat [5]: high expression levels
- expression level of albumin [5]: high expression levels
- expression of Dnmt-1 (Dnmt-1): suppressed

From patent US20150218514A1, “PROMOTER OF DIFFERENTIATION FROM HEPATIC PROGENITOR CELL INTO HEPATIC CELL, AND USE THEREOF” (NATIONAL CANCER CENTER, priority 2012, published 2015)
